Assay results taken from PubChem BioAssay (NCI).
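Here, GI50 denotes the concentration required for 50% inhibition of growth. TGI denotes the concentration required for complete inhibition of growth.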

Experiments:
Experiment in all cases: inhibition of tumour cell growth, NCI panel, 384-well format
[1] = system: 786-0 renal
[2] = system: A498 renal
[3] = system: A549 NSCLC
[4] = system: ACHN renal
[5] = system: BT-549 breast
[6] = system: CAKI-1 renal
[7] = system: CCRF-CEM leukemia
[8] = system: COLO 205 colon
[9] = system: DU-145 prostate
[10] = system: EKVX NSCLC
[11] = system: HCC-2998 colon
[12] = system: HCT-15 colon
[13] = system: HL-60(TB) leukemia
[14] = system: HOP-62 NSCLC
[15] = system: HOP-92 NSCLC
[16] = system: HS 578T breast
[17] = system: HT29 colon
[18] = system: IGROV1 ovarian
[19] = system: KM12 colon
[20] = system: M14 melanoma
[21] = system: MALME-3M melanoma
[22] = system: MCF7 breast
[23] = system: MDA-MB-231 breast
[24] = system: MDA-MB-435 melanoma
[25] = system: MDA-MB-468 breast
[26] = system: MOLT-4 leukemia
[27] = system: NCI-H226 lung
[28] = system: NCI-H23 lung
[29] = system: NCI-H322M lung
[30] = system: NCI-H460 NSCLC
[31] = system: NCI-H522 lung
[32] = system: NCI/ADR-RES ovarian
[33] = system: OVCAR-3 ovarian
[34] = system: OVCAR-4 ovarian
[35] = system: OVCAR-5 ovarian
[36] = system: OVCAR-8 ovarian
[37] = system: PC-3 prostate
[38] = system: RPMI-8226 leukemia
[39] = system: RXF 393 renal
[40] = system: SF-268 CNS
[41] = system: SF-295 CNS
[42] = system: SF-539 CNS
[43] = system: SK-MEL-2 melanoma
[44] = system: SK-MEL-28 melanoma
[45] = system: SK-MEL-5 melanoma
[46] = system: SK-OV-3 ovarian
[47] = system: SN12C renal
[48] = system: SNB-19 CNS
[49] = system: SNB-75 CNS
[50] = system: SR leukemia
[51] = system: SW-620 colon
[52] = system: T-47D breast
[53] = system: TK-10 renal
[54] = system: U251 glioblastoma
[55] = system: UACC-257 melanoma
[56] = system: UACC-62 melanoma
[57] = system: HCT-116 colon
[58] = system: LOX IMVI melanoma
[59] = system: UO-31 renal

For `O=c1[nH]c(-c2ccc(C(F)(F)F)cc2)nc2c1CSCC2`, the GI50 [1] was over 100 µM, the TGI [1] was over 100 µM and the GI50 [2] was 95.7 µM. For the same compound, the TGI [2] was over 100 µM, the GI50 [3] was over 100 µM and the TGI [3] was over 100 µM. It also gave a GI50 [4] of over 100 µM, a TGI [4] of over 100 µM and a GI50 [5] of 30.5 µM. The TGI [5] was over 100 µM, the GI50 [6] was 3.83 µM and the TGI [6] was over 100 µM. For the same compound, the GI50 [7] was 88.6 µM, the TGI [7] was over 100 µM and the GI50 [8] was over 100 µM. For the same compound, the TGI [8] was over 100 µM, the GI50 [9] was over 100 µM and the TGI [9] was over 100 µM. The GI50 [10] was 24 µM, the TGI [10] was over 100 µM and the GI50 [11] was over 100 µM. It also gave a TGI [11] of over 100 µM, a GI50 [12] of over 100 µM and a TGI [12] of over 100 µM. It also gave a GI50 [13] of over 100 µM, a TGI [13] of over 100 µM and a GI50 [14] of 79.5 µM. The TGI [14] was over 100 µM, the GI50 [15] was over 100 µM and the TGI [15] was over 100 µM. It also gave a GI50 [16] of over 100 µM, a TGI [16] of over 100 µM and a GI50 [17] of over 100 µM. The TGI [17] was over 100 µM, the GI50 [18] was over 100 µM and the TGI [18] was over 100 µM. The GI50 [19] was over 100 µM, the TGI [19] was over 100 µM and the GI50 [20] was over 100 µM. For the same compound, the TGI [20] was over 100 µM, the GI50 [21] was 25 µM and the TGI [21] was over 100 µM. The GI50 [22] was over 100 µM, the TGI [22] was over 100 µM and the GI50 [23] was over 100 µM. It also gave a TGI [23] of over 100 µM, a GI50 [24] of over 100 µM and a TGI [24] of over 100 µM. The GI50 [25] was 7.03 µM, the TGI [25] was 53 µM and the GI50 [26] was 68.7 µM. It also gave a TGI [26] of over 100 µM, a GI50 [27] of 13.3 µM and a TGI [27] of over 100 µM. For the same compound, the GI50 [28] was 25.7 µM, the TGI [28] was over 100 µM and the GI50 [29] was over 100 µM. The TGI [29] was over 100 µM, the GI50 [30] was over 100 µM and the TGI [30] was over 100 µM. For the same compound, the GI50 [31] was 28.8 µM, the TGI [31] was over 100 µM and the GI50 [32] was over 100 µM. It also gave a TGI [32] of over 100 µM, a GI50 [33] of 13.5 µM and a TGI [33] of over 100 µM. It also gave a GI50 [34] of 0.818 µM, a TGI [34] of over 100 µM and a GI50 [35] of over 100 µM. The TGI [35] was over 100 µM, the GI50 [36] was over 100 µM and the TGI [36] was over 100 µM. It also gave a GI50 [37] of over 100 µM, a TGI [37] of over 100 µM and a GI50 [38] of 78.3 µM. The TGI [38] was over 100 µM, the GI50 [39] was 13.5 µM and the TGI [39] was over 100 µM. It also gave a GI50 [40] of 98.9 µM, a TGI [40] of over 100 µM and a GI50 [41] of over 100 µM. For the same compound, the TGI [41] was over 100 µM, the GI50 [42] was over 100 µM and the TGI [42] was over 100 µM. For the same compound, the GI50 [43] was 72.9 µM, the TGI [43] was over 100 µM and the GI50 [44] was over 100 µM. For the same compound, the TGI [44] was over 100 µM, the GI50 [45] was 52.5 µM and the TGI [45] was over 100 µM. It also gave a GI50 [46] of 14.7 µM, a TGI [46] of over 100 µM and a GI50 [47] of over 100 µM. For the same compound, the TGI [47] was over 100 µM, the GI50 [48] was over 100 µM and the TGI [48] was over 100 µM. For the same compound, the GI50 [49] was 24.5 µM, the TGI [49] was over 100 µM and the GI50 [50] was over 100 µM. For the same compound, the TGI [50] was over 100 µM, the GI50 [51] was over 100 µM and the TGI [51] was over 100 µM. It also gave a GI50 [52] of over 100 µM, a TGI [52] of over 100 µM and a GI50 [53] of over 100 µM. It also gave a TGI [53] of over 100 µM, a GI50 [54] of over 100 µM and a TGI [54] of over 100 µM. The GI50 [55] was over 100 µM, the TGI [55] was over 100 µM and the GI50 [56] was over 100 µM. It also gave a TGI [56] of over 100 µM.
Work on `CC#CC(=O)N1CCC[C@H]1c1nc(-c2ccc(C(=O)Nc3ccccn3)cc2)c2c(N)nccn12` yielded a GI50 [1] of over 74.8 µM, a TGI [1] of over 100 µM and a GI50 [2] of 59.6 µM. The TGI [2] was over 100 µM, the GI50 [3] was 51.9 µM and the TGI [3] was over 100 µM. The GI50 [4] was over 73.2 µM, the TGI [4] was over 100 µM and the GI50 [5] was 27.9 µM. For the same compound, the TGI [5] was over 91.9 µM, the GI50 [6] was 57.7 µM and the TGI [6] was over 100 µM. For the same compound, the GI50 [7] was 85.3 µM, the TGI [7] was over 100 µM and the GI50 [8] was over 100 µM. The TGI [8] was over 100 µM, the GI50 [9] was 82 µM and the TGI [9] was over 100 µM. It also gave a GI50 [10] of 73.1 µM, a TGI [10] of over 100 µM and a GI50 [11] of over 100 µM. It also gave a TGI [11] of over 100 µM, a GI50 [57] of 47.9 µM and a TGI [57] of over 100 µM. It also gave a GI50 [12] of over 76.2 µM, a TGI [12] of over 100 µM and a GI50 [13] of over 100 µM. The TGI [13] was over 100 µM, the GI50 [14] was 42 µM and the TGI [14] was over 100 µM. The GI50 [15] was 68.8 µM, the TGI [15] was over 100 µM and the GI50 [16] was 44.9 µM. The TGI [16] was over 100 µM, the GI50 [17] was 84.8 µM and the TGI [17] was over 100 µM. The GI50 [18] was 20 µM, the TGI [18] was 64.3 µM and the GI50 [19] was over 100 µM. It also gave a TGI [19] of over 100 µM, a GI50 [58] of over 89.2 µM and a TGI [58] of over 100 µM. It also gave a GI50 [20] of 74.8 µM, a TGI [20] of over 100 µM and a GI50 [21] of over 58.9 µM. The TGI [21] was over 100 µM, the GI50 [22] was 50.9 µM and the TGI [22] was over 100 µM. It also gave a GI50 [23] of 38.3 µM, a TGI [23] of over 100 µM and a GI50 [24] of over 100 µM. The TGI [24] was over 100 µM, the GI50 [25] was 15.5 µM and the TGI [25] was 40.7 µM. For the same compound, the GI50 [26] was 18.8 µM, the TGI [26] was 36.1 µM and the GI50 [27] was 41.6 µM. For the same compound, the TGI [27] was 98.4 µM, the GI50 [28] was over 100 µM and the TGI [28] was over 100 µM. It also gave a GI50 [29] of 31.6 µM, a TGI [29] of over 88.3 µM and a GI50 [30] of 71.8 µM. The TGI [30] was over 100 µM, the GI50 [31] was 5.87 µM and the TGI [31] was over 80.8 µM. For the same compound, the GI50 [32] was over 100 µM, the TGI [32] was over 100 µM and the GI50 [33] was 44.8 µM. The TGI [33] was over 100 µM, the GI50 [34] was over 100 µM and the TGI [34] was over 100 µM. It also gave a GI50 [35] of over 100 µM, a TGI [35] of over 100 µM and a GI50 [36] of over 90 µM. For the same compound, the TGI [36] was over 100 µM, the GI50 [37] was over 100 µM and the TGI [37] was over 100 µM. For the same compound, the GI50 [38] was 48.5 µM, the TGI [38] was over 100 µM and the GI50 [39] was 14.2 µM. For the same compound, the TGI [39] was over 60.9 µM, the GI50 [40] was over 86.4 µM and the TGI [40] was over 100 µM. For the same compound, the GI50 [41] was over 100 µM, the TGI [41] was over 100 µM and the GI50 [42] was over 100 µM. It also gave a TGI [42] of over 100 µM, a GI50 [44] of over 100 µM and a TGI [44] of over 100 µM. It also gave a GI50 [45] of 60.5 µM, a TGI [45] of over 100 µM and a GI50 [46] of 71.4 µM. The TGI [46] was over 100 µM, the GI50 [47] was 98 µM and the TGI [47] was over 100 µM. For the same compound, the GI50 [48] was over 100 µM, the TGI [48] was over 100 µM and the GI50 [49] was 29.7 µM. For the same compound, the TGI [49] was over 83 µM, the GI50 [50] was 15.2 µM and the TGI [50] was 42.1 µM. The GI50 [51] was over 100 µM, the TGI [51] was over 100 µM and the GI50 [52] was 40.1 µM. It also gave a TGI [52] of over 100 µM, a GI50 [53] of 57.2 µM and a TGI [53] of over 100 µM. For the same compound, the GI50 [54] was over 100 µM, the TGI [54] was over 100 µM and the GI50 [55] was 67.7 µM. For the same compound, the TGI [55] was over 100 µM, the GI50 [56] was 39.9 µM and the TGI [56] was over 100 µM. For the same compound, the GI50 [59] was over 95.6 µM and the TGI [59] was over 100 µM.
